Experimental data from patent publication US20230135894A1, “MK2 DEGRADERS AND USES THEREOF” (Kymera Therapeutics, Inc., priority 2021, published 2023).

Assays:
[1] = biological target: T1, MK2 (Homo sapiens, UniProt P49137); assay: MK2 degradation in human THP-1 monocytic cells (MSD, 24 h); type: cell-based; parameters: endogenous in cells; settings: for Dmax: THP-1, THP-1 cells; for DC50: THP-1 cells, read-out: MK2 MSD THP-1 degradation 24 h GMean External Abs DC50
Procedure, shortened: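 Readout: residual MK2 protein in THP-1 lysates, measured by MSD electrochemiluminescence sandwich assay after 24 h compound exposure (≤10-point serial dilutions, 0.1% DMSO, 37 °C). Curves normalised between lysis-buffer and DMSO-cell signals; DC50 by 4-parameter logistic fit.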

[2] = biological target: T1, MK2; assay: MK2 degradation in human SW1353 cells (MSD, 24 h); type: cell-based; parameters: endogenous in cells; host or cells: SW-1353 (ATCC HTB-94); key to MK2 MSD SW1353 degradation 24 h GMean External Abs DC50: A (<0.001 μM); B (0.001-0.01 μM); C (0.01-0.1 μM); D (>0.1 μM); —: “-”=not tested or inactive; key to MK2 MSD SW 1353 24 h Dmax %: —: “-”=not tested or inactive; settings: for Dmax: read-out: MK2 MSD SW 1353 24 h Dmax %; for DC50: read-out: MK2 MSD SW1353 degradation 24 h GMean External Abs DC50
Procedure, shortened: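 DC50 derived by 4-parameter logistic fit, with DMSO-treated signal as top and lysis-buffer signal as bottom. Remaining MK2 was measured by MSD electrochemiluminescent sandwich assay in RIPA lysates of human SW1353 cells exposed for 24 h at 37 °C to serially diluted compound in 0.1% DMSO.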

T1 sequence (P49137 whole entry): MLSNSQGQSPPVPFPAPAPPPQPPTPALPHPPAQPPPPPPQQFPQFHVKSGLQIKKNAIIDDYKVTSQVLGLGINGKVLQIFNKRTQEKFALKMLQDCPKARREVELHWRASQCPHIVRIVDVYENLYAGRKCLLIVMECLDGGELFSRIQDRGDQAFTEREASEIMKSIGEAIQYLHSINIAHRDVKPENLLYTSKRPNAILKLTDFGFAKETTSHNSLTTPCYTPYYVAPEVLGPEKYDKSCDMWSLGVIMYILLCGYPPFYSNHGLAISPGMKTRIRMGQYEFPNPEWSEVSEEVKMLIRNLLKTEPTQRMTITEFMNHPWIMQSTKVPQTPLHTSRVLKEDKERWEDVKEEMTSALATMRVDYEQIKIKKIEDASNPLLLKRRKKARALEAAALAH

Row | SMILES | Dmax [1] [%] | DC50 [1] [nM] | Dmax [2] [%] | DC50 [2] [nM] | MK2 MSD SW 1353 24 h Dmax % [2] | MK2 MSD SW1353 degradation 24 h GMean External Abs DC50 [2]
1 | O=C1CCN(c2cncc3c(N4CCN(CC5CCN(c6ccc(-c7cc(-c8cc9c([nH]8)C8(CC8)CNC9=O)ccn7)cc6)CC5)CC4)cccc23)C(=O)N1 [Compound I-212] | > 75 | 10 to 100 | > 75 | 10 to 100 |  | 
2 | C[C@@H]1CNc2c(sc3ccc4nc(N5CC6(CCN(CC7CCN(c8ccc9c(c8)n(C)c(=O)n9C8CCC(=O)NC8=O)CC7)CC6)C5)ccc4c23)C(=O)N1 (some centres unmarked) [Compound I-390] | < 50 | > 100 | < 50 | > 100 |  | 
3 | Cc1cc(N2CCC(CN3CCN(c4ccc5c(c4)n(C)c(=O)n5C4CCC(=O)NC4=O)CC3)CC2)ccc1-c1ccc2c(ccc3sc4c(c32)NC[C@@H](C)NC4=O)n1 (some centres unmarked) [Compound I-298] | > 75 | < 1 | > 75 | < 1 |  | 
4 | Cn1c(=O)n(C2CCC(=O)NC2=O)c2ccc(N3CCC(CN4CCN(c5ccc(-c6nccc(-c7cc8c([nH]7)C7(CC7)CNC8=O)n6)cc5)CC4)CC3)cc21 (centres unmarked) [Compound I-428] | > 75 | 1 to 10 | > 75 | < 1 |  | 
5 | C[C@@H]1CNc2c(sc3ccc4nc(N5CCC6(CC5)CN(C5CCN(c7cccc8c7n(C)c(=O)n8C7CCC(=O)NC7=O)CC5)C6)ccc4c23)C(=O)N1 (some centres unmarked) [Compound I-441] | > 75 | 1 to 10 | > 75 | < 1 |  | 
6 | C[C@@H]1CNc2c(sc3ccc4nc(-c5ccc(N6CCC(CN7CCC(c8ccc9c(c8)n(C)c(=O)n9C8CCC(=O)NC8=O)CC7)CC6)cc5)ccc4c23)C(=O)N1 (some centres unmarked) [Compound I-119] | > 75 | < 1 | > 75 | < 1 |  | 
7 | C[C@@H]1CNc2c(sc3ccc4nc(-c5ccc(N6CCN(CCCCCCCCc7cccc8c7n(C)c(=O)n8C7CCC(=O)NC7=O)CC6)cc5)ccc4c23)C(=O)N1 (some centres unmarked) [Compound I-170] | > 75 | 1 to 10 | > 75 | 1 to 10 |  | 
8 | C[C@@H]1CN(C)c2c(sc3ccc4nc(-c5ccc(N6CCC(CN7CCN(c8ccc9c(c8)n(C)c(=O)n9C8CCC(=O)NC8=O)CC7)CC6)cc5)ccc4c23)C(=O)N1 (some centres unmarked) [Compound I-253] | > 75 | 1 to 10 | > 75 | 1 to 10 |  | 
9 | Cn1c(=O)n(C2CCC(=O)NC2=O)c2ccc(CCN3CCN(c4ccc(-c5cc(-c6cc7c([nH]6)C6(CC6)CNC7=O)ccn5)cc4)CC3)cc21 (centres unmarked) [Compound I-202] | < 50 | > 100 |  |  | — | —
10 | C[C@@H]1CNc2c(sc3ccc4nc(-c5ccc(N6CCN(CCCCOc7ccc(N8CCC(=O)NC8=O)cc7)CC6)nc5)ccc4c23)C(=O)N1 [Compound I-437] | > 75 | 1 to 10 | > 75 | 1 to 10 |  | 
11 | Cn1c(=O)n(C2CCC(=O)NC2=O)c2ccc(N3CCC(CN4CCN(c5cc(C#N)cc(-n6cc(-c7ccc8c(c7)CCNC8=O)c(N)n6)c5)CC4)CC3)cc21 (centres unmarked) [Compound I-458] | < 50 | > 100 | < 50 | > 100 |  | 
12 | COc1cc(N2CCN(CC3CCN(c4ccc5c(c4)n(C)c(=O)n5C4CCC(=O)NC4=O)CC3)CC2)cc(-n2cc(-c3ccc4c(c3)CCNC4=O)c(N)n2)c1 (centres unmarked) [Compound I-459] | < 50 | > 100 | < 50 | > 100 |  | 
13 | Cn1c(=O)n(C2CCC(=O)NC2=O)c2cccc(N3CCC(CN4CCN(c5ccc(-c6cc(-c7cc8c([nH]7)CCNC8=O)ccn6)cc5)CC4)CC3)c21 (centres unmarked) [Compound I-120] | > 75 | 1 to 10 | > 75 | 1 to 10 |  | 
14 | C[C@@H]1CNc2c(sc3ccc4nc(-c5ccc(N6CCN(CCCc7cccc8c7n(C)c(=O)n8C7CCC(=O)NC7=O)CC6)cc5)ccc4c23)C(=O)N1 (some centres unmarked) [Compound I-172] | > 75 | < 1 | > 75 | < 1 |  | 
15 | Cn1c(=O)n(C2CCC(=O)NC2=O)c2ccc(C3CCN(CC4CCN(c5ccc(-c6cc(-c7cc8c([nH]7)CCNC8=O)ccn6)c(F)c5)CC4)CC3)cc21 (centres unmarked) [Compound I-305] | > 75 | < 1 | > 75 | < 1 |  | 
16 | Cc1cc(N2CCN(CC3CN(c4ccc5c(c4)n(C)c(=O)n5C4CCC(=O)NC4=O)C3)CC2)ccc1-c1ccc2c(ccc3sc4c(c32)NC[C@@H](C)NC4=O)n1 (some centres unmarked) [Compound I-236] | > 75 | < 1 | > 75 | < 1 |  | 
17 | C[C@@H]1CNc2c(sc3ccc4nc(-c5cccc(N6CCC(CN7CCN(CCc8cccc9c8n(C)c(=O)n9C8CCC(=O)NC8=O)CC7)CC6)c5)ccc4c23)C(=O)N1 (some centres unmarked) [Compound I-107] | > 75 | < 1 | > 75 | 1 to 10 |  | 
18 | C[C@@H]1CN(C)c2c(sc3ccc4nc(-c5ccc(N6CCN(CC7CCN(c8cccc9c8n(C)c(=O)n9C8CCC(=O)NC8=O)CC7)CC6)cc5)ccc4c23)C(=O)N1 (some centres unmarked) [Compound I-274] | > 75 | 10 to 100 | > 75 | 10 to 100 |  | 
19 | C[C@@H]1CNc2c(sc3ccc4nc(-c5ccc(CNC(=O)CCCCCCCc6ccc7c(c6)n(C)c(=O)n7C6CCC(=O)NC6=O)cc5)ccc4c23)C(=O)N1 (some centres unmarked) [Compound I-87] | > 75 | 1 to 10 | > 75 | 1 to 10 |  | 
20 | C[C@@H]1CNc2c(sc3ccc4nc(N5CCCN(C6CC7(CCN(c8ccc9c(c8)n(C)c(=O)n9C8CCC(=O)NC8=O)CC7)C6)CC5)ccc4c23)C(=O)N1 (some centres unmarked) [Compound I-411] | 50 to 75 | 10 to 100 | 50 to 75 | 1 to 10 |  | 
21 | Cn1c(=O)n(C2CCC(=O)NC2=O)c2cccc(CCCCCCN3CC4(CCN(c5ccc6c(c5)Cn5cc(-c7ccc(F)cc7)cc5-c5nccn5-6)C4)C3)c21 (centres unmarked) [Compound I-257] | < 50 | > 100 | < 50 | > 100 |  | 
22 | O=C1CCN(c2cncc3c(N4CC(CN5CCN(c6ccc(-c7cc(-c8cc9c([nH]8)CCNC9=O)ccn7)cc6)CC5)C4)cccc23)C(=O)N1 [Compound I-197] | > 75 | 10 to 100 |  |  | — | —
23 | C[C@@H]1CNc2c(sc3ccc4nc(N5CCC(CN6CC7(C6)CN(c6ccc8c(c6)n(C)c(=O)n8C6CCC(=O)NC6=O)C7)CC5)ccc4c23)C(=O)N1 (some centres unmarked) [Compound I-439] | > 75 | 1 to 10 | > 75 | < 1 |  | 
